Measurements reported in the supplement of paper PMC9663587.

How the values were obtained:
THZ531 = compound: CN(C)C/C=C/C(=O)Nc1ccc(C(=O)N2CCC[C@@H](Nc3ncc(Cl)c(-c4c[nH]c5ccccc45)n3)C2)cc1 [THZ531]; test: increase in dead-cell fraction, 72 h; higher = more death;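 further: breast cancer cell lines in 384-well plates, stained with Hoechst plus LIVE/DEAD far red dye and imaged, cells above an LDR intensity threshold counted dead, Hoechst-negative corpses included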
Neratinib/HKI272 = compound: CCOc1cc2ncc(C#N)c(Nc3ccc(OCc4ccccn4)c(Cl)c3)c2cc1NC(=O)/C=C/CN(C)C [Neratinib/HKI272]; test: as above
[1] = compound: CCc1cnn2c(NCc3ccc[n+]([O-])c3)cc(N3CCCC[C@H]3CCO)nc12; test: as above
THZ1 = compound: CN(C)C/C=C/C(=O)Nc1ccc(C(=O)Nc2cccc(Nc3ncc(Cl)c(-c4c[nH]c5ccccc45)n3)c2)cc1 [THZ1]; test: as above
LEE011/Ribociclib = compound: CN(C)C(=O)c1cc2cnc(Nc3ccc(N4CCNCC4)cn3)nc2n1C1CCCC1 [LEE011/Ribociclib]; test: as above
BSJ-03-123 = compound: CC(=O)c1c(C)c2cnc(Nc3ccc(N4CCN(CCOCCOCCOCCNC(=O)COc5cccc6c5C(=O)N(C5CCC(=O)NC5=O)C6=O)CC4)cn3)nc2n(C2CCCC2)c1=O [BSJ-03-123]; test: as above
Flavopiridol = compound: CN1CC[C@H](c2c(O)cc(O)c3c(=O)cc(-c4ccccc4Cl)oc23)[C@H](O)C1 [Flavopiridol]; test: as above
[2] = compound: CC(=O)c1c(C)c2cnc(Nc3ccc(N4CCNCC4)cn3)nc2n(C2CCCC2)c1=O; test: as above
YKL-5-124 = compound: C=CC(=O)Nc1ccc(C(=O)Nc2[nH]nc3c2CN(C(=O)N[C@H](CN(C)C)c2ccccc2)C3(C)C)cc1 [YKL-5-124]; test: as above
[3] = compound: CCN1CCN(Cc2ccc(Nc3ncc(F)c(-c4cc(F)c5nc(C)n(C(C)C)c5c4)n3)nc2)CC1; test: as above
Ceritinib/LDK378 = compound: Cc1cc(Nc2ncc(Cl)c(Nc3ccccc3S(=O)(=O)C(C)C)n2)c(OC(C)C)cc1C1CCNCC1 [Ceritinib/LDK378]
Saracatinib/AZD0530 = compound: CN1CCN(CCOc2cc(OC3CCOCC3)c3c(Nc4c(Cl)ccc5c4OCO5)ncnc3c2)CC1 [Saracatinib/AZD0530]
Luminespib/NVP-AUY922 = compound: CCNC(=O)c1noc(-c2cc(C(C)C)c(O)cc2O)c1-c1ccc(CN2CCOCC2)cc1 [Luminespib/NVP-AUY922]
BSJ-01-175 = compound: CN(C)C/C=C/C(=O)Nc1ccc(O[C@@H]2CCC[C@@H](Nc3ncc(Cl)c(-c4c[nH]c5ccccc45)n3)C2)cc1 [BSJ-01-175]
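Wherever GR50, 72 h is given: breast cancer and non-malignant breast epithelial cell lines, Deep Dye Drop or Dye Drop imaging, nine half-log doses, GR normalized to time-zero plates and DMSO-only controls.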

## HCC1187
THZ531; 0.0001 µM
  increase in dead-cell fraction: 0.0118
THZ531; 0.0003162 µM
  increase in dead-cell fraction: -0.0088
THZ531; 0.001 µM
  increase in dead-cell fraction: -0.0009
THZ531; 0.003162 µM
  increase in dead-cell fraction: -0.0126
THZ531; 0.01 µM
  increase in dead-cell fraction: -0.0087
THZ531; 0.03162 µM
  increase in dead-cell fraction: -0.0107
THZ531; 0.1 µM
  increase in dead-cell fraction: 0.36
THZ531; 0.3162 µM
  increase in dead-cell fraction: 0.611
Neratinib/HKI272; 0.0003162 µM
  increase in dead-cell fraction: -0.0132
Neratinib/HKI272; 0.001 µM
  increase in dead-cell fraction: 0.0086
Neratinib/HKI272; 0.003162 µM
  increase in dead-cell fraction: -0.0045
Neratinib/HKI272; 0.01 µM
  increase in dead-cell fraction: -0.0058
Neratinib/HKI272; 0.03162 µM
  increase in dead-cell fraction: -0.0052
Neratinib/HKI272; 0.1 µM
  increase in dead-cell fraction: -0.002
Neratinib/HKI272; 0.3162 µM
  increase in dead-cell fraction: 0.0006
Neratinib/HKI272; 1 µM
  increase in dead-cell fraction: 0.0155
Neratinib/HKI272; 3.162 µM
  increase in dead-cell fraction: 0.0076
[1]; 0.0001 µM
  increase in dead-cell fraction: 0.0033
[1]; 0.0003162 µM
  increase in dead-cell fraction: 0.0035
[1]; 0.001 µM
  increase in dead-cell fraction: 0.0039
[1]; 0.003162 µM
  increase in dead-cell fraction: 0.0055
[1]; 0.01 µM
  increase in dead-cell fraction: 0.0539
[1]; 0.03162 µM
  increase in dead-cell fraction: 0.56
[1]; 0.1 µM
  increase in dead-cell fraction: 0.662
[1]; 0.3162 µM
  increase in dead-cell fraction: 0.668
[1]; 1 µM
  increase in dead-cell fraction: 0.598
THZ1; 0.0001 µM
  increase in dead-cell fraction: -0.0047
THZ1; 0.0003162 µM
  increase in dead-cell fraction: -0.0081
THZ1; 0.001 µM
  increase in dead-cell fraction: 0.0016
THZ1; 0.003162 µM
  increase in dead-cell fraction: 0.019
THZ1; 0.01 µM
  increase in dead-cell fraction: 0.0061
THZ1; 0.03162 µM
  increase in dead-cell fraction: 0.113
THZ1; 0.1 µM
  increase in dead-cell fraction: 0.421
THZ1; 0.3162 µM
  increase in dead-cell fraction: 0.568
THZ1; 1 µM
  increase in dead-cell fraction: 0.624
LEE011/Ribociclib; 0.001 µM
  increase in dead-cell fraction: -0.0158
LEE011/Ribociclib; 0.003162 µM
  increase in dead-cell fraction: 0.0194
LEE011/Ribociclib; 0.01 µM
  increase in dead-cell fraction: 0.0202
LEE011/Ribociclib; 0.03162 µM
  increase in dead-cell fraction: 0.0086
LEE011/Ribociclib; 0.1 µM
  increase in dead-cell fraction: -0.01
LEE011/Ribociclib; 0.3162 µM
  increase in dead-cell fraction: 0.0057
LEE011/Ribociclib; 1 µM
  increase in dead-cell fraction: 0.0164
LEE011/Ribociclib; 3.162 µM
  increase in dead-cell fraction: 0.0124
LEE011/Ribociclib; 10 µM
  increase in dead-cell fraction: 0.0129
BSJ-03-123; 0.001 µM
  increase in dead-cell fraction: 0.0005
BSJ-03-123; 0.003162 µM
  increase in dead-cell fraction: -0.0076
BSJ-03-123; 0.01 µM
  increase in dead-cell fraction: -0.0142
BSJ-03-123; 0.03162 µM
  increase in dead-cell fraction: -0.0171
BSJ-03-123; 0.1 µM
  increase in dead-cell fraction: 0.013
BSJ-03-123; 0.3162 µM
  increase in dead-cell fraction: 0.0153
BSJ-03-123; 1 µM
  increase in dead-cell fraction: 0.037
BSJ-03-123; 3.162 µM
  increase in dead-cell fraction: 0.0469
BSJ-03-123; 10 µM
  increase in dead-cell fraction: 0.323
Flavopiridol; 0.0001 µM
  increase in dead-cell fraction: -0.0206
Flavopiridol; 0.0003162 µM
  increase in dead-cell fraction: 0.0043
Flavopiridol; 0.001 µM
  increase in dead-cell fraction: 0.0532
Flavopiridol; 0.003162 µM
  increase in dead-cell fraction: -0.0091
Flavopiridol; 0.01 µM
  increase in dead-cell fraction: 0.0053
Flavopiridol; 0.03162 µM
  increase in dead-cell fraction: -0.0105
Flavopiridol; 0.1 µM
  increase in dead-cell fraction: 0.0075
Flavopiridol; 0.3162 µM
  increase in dead-cell fraction: 0.15
Flavopiridol; 1 µM
  increase in dead-cell fraction: 0.612
[2]; 0.0003162 µM
  increase in dead-cell fraction: -0.0075
[2]; 0.001 µM
  increase in dead-cell fraction: 0.0038
[2]; 0.003162 µM
  increase in dead-cell fraction: 0.0189
[2]; 0.01 µM
  increase in dead-cell fraction: 0.0048
[2]; 0.03162 µM
  increase in dead-cell fraction: -0.0042
[2]; 0.1 µM
  increase in dead-cell fraction: -0.001
[2]; 0.3162 µM
  increase in dead-cell fraction: -0.0035
[2]; 1 µM
  increase in dead-cell fraction: 0.0145
[2]; 3.162 µM
  increase in dead-cell fraction: 0.0042
YKL-5-124; 0.001 µM
  increase in dead-cell fraction: 0.0446
YKL-5-124; 0.003162 µM
  increase in dead-cell fraction: 0.0713
YKL-5-124; 0.01 µM
  increase in dead-cell fraction: 0.133
YKL-5-124; 0.03162 µM
  increase in dead-cell fraction: 0.0654
YKL-5-124; 0.1 µM
  increase in dead-cell fraction: 0.0694
YKL-5-124; 0.3162 µM
  increase in dead-cell fraction: 0.0946
YKL-5-124; 1 µM
  increase in dead-cell fraction: 0.164
YKL-5-124; 3.162 µM
  increase in dead-cell fraction: 0.17
YKL-5-124; 10 µM
  increase in dead-cell fraction: 0.406
[3]; 0.001 µM
  increase in dead-cell fraction: 0.0028
[3]; 0.003162 µM
  increase in dead-cell fraction: 0.0037
[3]; 0.01 µM
  increase in dead-cell fraction: 0.0062
[3]; 0.03162 µM
  increase in dead-cell fraction: -0.0026
[3]; 0.1 µM
  increase in dead-cell fraction: 0.0042
[3]; 0.3162 µM
  increase in dead-cell fraction: 0.0069
[3]; 1 µM
  increase in dead-cell fraction: -0.0008
[3]; 3.162 µM
  increase in dead-cell fraction: 0.0149
[3]; 10 µM
  increase in dead-cell fraction: 0.0352
Ceritinib/LDK378
  GR50, 72 h: 1.49 µM
Saracatinib/AZD0530
  GR50, 72 h: 0.258 µM
Luminespib/NVP-AUY922
  GR50, 72 h: 0.00363 µM
BSJ-01-175
  GR50, 72 h: 0.00928 µM
